# Source: paper PMC11519904, “Comprehensive Cell Biological Investigation of Cytochalasin B Derivatives with Distinct Activities on the Actin Network” (Journal of Natural Products, 2024)
# “Also recorded” adds a separate entry of the source. Where two headings read alike, the source gives them in different places.
# Assays:
# [1] = tested on: filamentous actin (F-actin) in U-2OS wild type (wt) cells; test: Actin disruption assay in U-2OS cells (phalloidin staining); assay type: cell-based, human; conditions: for effect on F-actin network, high dose 1 h: 5 x IC50 (L929), compared to control; for effect on actin and nuclei number, high dose 24 h: 5 x IC50, 24 h, differences between 1 and 24 h treatment
# Experimental: For this, the human osteosarcoma cell line U-2OS was treated using concentrations estimated based on previously determined IC50 values in murine L929 fibroblasts (Table 1), referred to as low dose (1 × IC50), and a 5-fold concentration, referred to as high dose (5 × IC50). Reorganization of the F-actin network was also investigated upon high dose treatment, followed by washout and a 1 h recovery phase in fresh medium. The impact on F-actin network organization was visualized using fluorescently labeled phalloidin (Figure 2). […] In addition, the effects on F-actin structures observed upon high dose treatment of all compounds were fully reversible after a 1 h recovery time (Figure 2m–q).
# The respective previously determined IC50 values in L929 were used to calculate the treatment concentration (1 × IC50: low dose; 5 × IC50: high dose).[37] DMSO was used as the vehicle control, corresponding to the highest compound volume used in the assay. Coverslips were coated with 25 μg/mL fibronectin (Roche, Mannheim, Germany) diluted 1:40 in phosphate buffered saline (PBS, pH 7.4, Life Technologies), and cells were seeded at a density of 20,000 cells and allowed to spread overnight. CO2-equilibrated culture medium was spiked with the desired compound and DMSO, respectively, in the above-mentioned concentration, and cells were treated with prepared medium for 1 h under cell culture conditions. For long-term experiments, the treatment phase was extended to 24 h. Cells were washed once and fixed afterward using 4% prewarmed paraformaldehyde (PFA) supplied in PBS for 20 min at 37 °C, followed by three additional washing steps with prewarmed PBS buffer. In addition, the reversibility of high dose effects on F-actin network organization was investigated by a washout procedure including three times prewarmed PBS wash steps prior to the addition of fresh medium and a recovery time of 1 h before fixation. In the case of 24 h treatments, the recovery phase was extended to 47 h. Cells were permeabilized with 0.1% Triton X-100 (Bio-Rad Laboratories, Hercules, CA, USA) in PBS buffer for 1 min at room temperature, washed three times with PBS, and stained for F-actin using ATTO-594-coupled phalloidin (ATTO-Tec, Siegen, Germany) diluted in PBS buffer (1:100) for 1 h at room temperature. Coverslips were washed thrice in PBS and mounted in ProLong Diamond antifade mountant (Invitrogen) containing DAPI to probe for nuclear DNA. Cells were recorded using an inverted microscope (Nikon Eclipse Ti2, Tokyo, Japan) equipped with a 60 times Nikon oil immersion objective (Plan Apofluar, 1.4 NA), a pE-4000 (CoolLED, Andover, UK) as light source, and a pco.edge back-illuminated sCMOS camera (Excelitas Technologies, Mississauga, ON, Canada). The microscopy system was operated by and images were recorded with NIS (Nikon) and processed with ImageJ (NIH, Bethesda, MD, USA).
# [2] = Microextraction of compounds from medium after cell exposure (conversion to 2); assay type: in vitro ADME, human; conditions: for conversion to 2 after 1 h: 1 h cell exposure (data not shown)
# Experimental: […] Therefore, cells were seeded and treated with 5 × IC50 concentrations, as already described. […] After evaporation of EtOAc, the dried extracts were diluted in methanol (50 μL) and measured with a high-pressure liquid chromatography system coupled to a diode-array UV/vis detector conjugated with an electrospray ionization mass spectrometer, using an UltiMate 3000 Series uHPLC (Thermo Fisher Scientific) utilizing a C18 Acquity UPLC BEH column (2.1 × 50 mm, 1.7 μm; Waters, Milford, USA) connected to an amaZon speed ESI-Iontrap-MS (Bruker, Billerica, MA, USA). Spectra were analyzed using Bruker Compass DataAnalysis 4.4 SR1.
# [3] = tested on: L929 (mouse fibroblast); test: Cytotoxicity assay (MTT), L929; assay type: cell-based; conditions: 5 days of incubation, MTT, NC: no cytotoxic effect, or only weak inhibition of proliferation, read-out: IC50 L929
# Experimental: The cytotoxicity assay was implemented in 96-well flat-bottom microtiter plates following a reported procedure.[21],[22],[33] The mammalian cell lines L929 (mouse fibroblast) and KB3.1 (human cervix carcinoma) were cultivated at 37 °C and 10% CO2 in Dulbecco’s modified minimum essential medium (DMEM, Life Technologies, Carlsbad, CA, USA) supplemented with 10% fetal bovine serum (FBS, Life Technologies). The microtiter plate was filled with 120 μL of suspended cells (50,000/mL), and 60 μL of a serial dilution of the test compound was added. After 5 days of incubation, growth inhibition (IC50) was determined by a colorimetric tetrazolium dye MTT assay.[34] The compounds were dissolved in MeOH (1 mg/mL), MeOH was used as negative control, and epothilone[35] (1 mg/mL) was used as positive control.
smiles,measurement,setting,value
"C=C1[C@@H](C)[C@H]2[C@H](Cc3ccccc3)NC(=O)[C@]23OC(=O)/C=C/[C@H](O)CCC[C@@H](C)C/C=C/[C@H]3[C@@H]1OC(C)=O [Compound 3, 7-O-acetyl cytochalasin B]","effect on F-actin network, high dose 1 h",[1]; 1 h,no such structures; also recorded: no effect
same,"effect on actin and nuclei number, high dose 24 h",[1],"+ actin disruption; also recorded: altered actin structures, however without inducing multinucleation"
same,conversion to 2 / decomposition after 24 h cell exposure,"[2]; medium re-extracted after 24 h, 5 x IC50, HPLC-UV-MS",no decomposition
same,IC50,[3],16 µM
same,IC50,"[3]; Mus musculus, L929, 120 h",> 10 µM
"C=C1[C@@H](C)[C@H]2[C@H](Cc3ccccc3)NC(=O)[C@]23OC(=O)/C=C/[C@H](OC(C)=O)CCC[C@@H](C)C/C=C/[C@H]3[C@@H]1O [Compound 6, 20-O-acetyl cytochalasin B]","effect on F-actin network, low dose","[1]; 1 x IC50 (L929), 1 h","partially led to compromised lamellipodia and a reduction of intermittent, cytoplasmic F-actin"
same,"effect on F-actin network, high dose 1 h",[1]; 1 h,complete collapse of the F-actin network; also recorded: actin disruption
same,"effect on actin and nuclei number, high dose 24 h",[1],+ multinucleation
same,conversion to 2 after 1 h,[2],not detected
same,IC50,[3],4.8 µM
same,IC50,"[3]; Mus musculus, L929, 120 h",4.8 to 9.4 µM
"C=C1[C@@H](C)[C@H]2[C@H](Cc3ccccc3)N(C(C)=O)C(=O)[C@]23OC(=O)/C=C/[C@H](O)CCC[C@@H](C)C/C=C/[C@H]3[C@@H]1O [Compound 5, N-acetyl cytochalasin B]","effect on F-actin network, high dose 1 h",[1]; 1 h,only slight; also recorded: moderate effects
same,"effect on actin and nuclei number, high dose 24 h",[1],+ multinucleation actin disruption
same,conversion to 2 after 1 h,[2],little conversion
same,IC50,[3],9.4 µM
same,IC50,"[3]; Mus musculus, L929, 120 h",4.8 to 9.4 µM
